Assay results published in patent publication US12084610B2, “Compositions and methods for reducing deleterious atmospheric gas emissions from flooded ecosystems” (Arkea Bio Corp., priority 2022, dated 2024).

Tests used:
[1] = 3-NOP volatility (mass loss open to air); format: physicochemical; settings: 500 mg in 5 dram vial open to air, ~18-24 C, 15-30% RH, 6 days
Protocol: 3-NOP Volatility: 500 mg of 3-NOP in a 5 dram vial was left open to air at ˜18-24 C at 15-30% RH over the course of 6 days. Average mass loss is ˜0.25% per day.

[2] = 3-NOP pH and temperature stability (HPLC); format: physicochemical; settings: 1-month time period, temperature 4-30 C, pH 4-10
Text: 3-NOP pH and Temperature Stability: Confirmed via HPLC over a 1-month time period at temperature between 4-30 C and pH 4-10.

Average mass loss (volatility) [1]: ~0.25 % per day
3-NOP pH and Temperature Stability [2]: Confirmed
SMILES: O=[N+]([O-])OCCCO [Formula 3-NOP, 3-nitrooxypropanol]
